Test results as given in ChEMBL document CHEMBL4038282 (Eur J Med Chem, 2017).

Assays:
MDA-MB-231 [1] = assay: Antiproliferative activity against human MDA-MB-231 cells up to 72 hrs by MTT assay; assay type: functional, cell-based; conditions: MDA-MB-231, 72 h
MDA-MB-231 [2] = assay: Potency index, ratio of curcumin IC50 to compound IC50 for human MDA-MB-231 cells; assay type: functional
HCT-116 = assay: Antiproliferative activity against human HCT116 cells up to 72 hrs by MTT assay; assay type: functional, cell-based; conditions: HCT-116, 72 h
PC-3 = assay: Antiproliferative activity against human PC3 cells up to 72 hrs by MTT assay; assay type: functional, cell-based; conditions: PC-3, 72 h
MDA-MB-468 [3] = assay: Antiproliferative activity against doxorubicin-resistant human MDA-MB-468 cells after 24 hrs by MTT assay; assay type: functional, cell-based; conditions: MDA-MB-468, 24 h
MDA-MB-468 [4] = assay: Potency index, ratio of curcumin IC50 to compound IC50 for doxorubicin-resistant human MDA-MB-468 cells; assay type: functional
Mus musculus [5] = assay: Acute-toxicity in nu/nu mouse assessed as changes in body weight at 500 mg/kg, po administered once daily for 5 days measured for 21 days; assay type: organism-based; conditions: in vivo, 504 h
Mus musculus [6] = assay: Acute-toxicity in nu/nu mouse assessed as behavioral changes at 500 mg/kg, po administered once daily for 5 days measured for 21 days; assay type: organism-based; conditions: in vivo, 504 h

IC50 (MDA-MB-231 [1]) [µM] | IC50 (HCT-116) [µM] | IC50 (PC-3) [µM] | SMILES | Ratio IC50 (MDA-MB-231 [2]) | IC50 (MDA-MB-468 [3]) [µM] | Ratio IC50 (MDA-MB-468 [4]) | Activity (Mus musculus [5]) | Activity (Mus musculus [6])
2.98 | 2.63 | 3.62 | CC(CO)(CO)C(=O)Oc1ccc(/C=C/C(=O)C(C)(C)C(=O)/C=C/c2ccc(OC(=O)C(C)(CO)CO)cc2)cc1 | 2.4 - 12.2 |  |  |  | 
5.94 | 15.5 | 17.4 | COc1cc(/C=C/C(O)=C/C(=O)/C=C/c2ccc(OC(=O)C(C)(CO)CO)c(OC)c2)ccc1O | 2.4 - 12.2 |  |  |  | 
4.66 | 11.4 | 12.5 | CCC(CO)(CO)C(=O)Oc1ccc(/C=C/C(=O)/C=C(O)/C=C/c2ccc(O)c(OC)c2)cc1OC | 2.4 - 12.2 |  |  |  | 
2 | 1.34 | 4.21 | CCC(CO)(CO)C(=O)Oc1ccc(/C=C/C(=O)/C=C(O)/C=C/c2ccc(OC(=O)C(CC)(CO)CO)c(OC)c2)cc1OC | 2.4 - 12.2 |  |  |  | 
2.55 | 4.77 | 7.64 | COc1ccc(/C=C/C(O)=C/C(=O)/C=C/c2ccc(OC(=O)C(C)(CO)CO)c(OC)c2)cc1OC | 2.4 - 12.2 |  |  |  | 
2.11 | 3.88 | 7.28 | COc1cc(/C=C/C(=O)C(Cc2ccccc2)(Cc2ccccc2)C(=O)/C=C/c2ccc(OC(=O)C(C)(CO)CO)c(OC)c2)ccc1OC(=O)C(C)(CO)CO | 2.4 - 12.2 |  |  |  | 
1.78 | 1.74 | 2.16 | CCC(CC)(C(=O)/C=C/c1ccc(OC(=O)C(C)(CO)CO)c(OC)c1)C(=O)/C=C/c1ccc(OC(=O)C(C)(CO)CO)c(OC)c1 | 2.4 - 12.2 |  |  |  | 

SMILES | IC50 (MDA-MB-231 [1]) [µM] | IC50 (HCT-116) [µM] | IC50 (PC-3) [µM] | Ratio IC50 (MDA-MB-231 [2]) | IC50 (MDA-MB-468 [3]) [µM] | Ratio IC50 (MDA-MB-468 [4]) | Activity (Mus musculus [5]) | Activity (Mus musculus [6])
COc1cc(/C=C/C(=O)C(C)(C)C(=O)/C=C/c2ccc(OC(=O)C(C)(CO)CO)c(OC)c2)ccc1OC(=O)C(C)(CO)CO | 1.98 | 1.65 | 1.76 | 2.4 - 12.2 | 5.71 | 10 | Non-Toxic | Non-Toxic
